Assays:
kojibiose phosphorylase [1] = target: T1, kojibiose phosphorylase (Thermoanaerobacter brockii, UniProt Q8L163); experiment: Specificity to acceptor in glucosyl-transferred saccharide-forming reaction by kojibiose phosphorylase (TLC); format: biochemical, Thermoanaerobium brockii, ATCC 35047; parameters: made in house; host or cells: Thermoanaerobium brockii, ATCC 35047 (natural producer, not recombinant; cell lysate purified by column chromatography); details: for Transfer of glucosyl group from β-D-glucose-1-phosphoric acid to the acceptor (in words): summary of Table 2
T1 sequence (Q8L163 1-775): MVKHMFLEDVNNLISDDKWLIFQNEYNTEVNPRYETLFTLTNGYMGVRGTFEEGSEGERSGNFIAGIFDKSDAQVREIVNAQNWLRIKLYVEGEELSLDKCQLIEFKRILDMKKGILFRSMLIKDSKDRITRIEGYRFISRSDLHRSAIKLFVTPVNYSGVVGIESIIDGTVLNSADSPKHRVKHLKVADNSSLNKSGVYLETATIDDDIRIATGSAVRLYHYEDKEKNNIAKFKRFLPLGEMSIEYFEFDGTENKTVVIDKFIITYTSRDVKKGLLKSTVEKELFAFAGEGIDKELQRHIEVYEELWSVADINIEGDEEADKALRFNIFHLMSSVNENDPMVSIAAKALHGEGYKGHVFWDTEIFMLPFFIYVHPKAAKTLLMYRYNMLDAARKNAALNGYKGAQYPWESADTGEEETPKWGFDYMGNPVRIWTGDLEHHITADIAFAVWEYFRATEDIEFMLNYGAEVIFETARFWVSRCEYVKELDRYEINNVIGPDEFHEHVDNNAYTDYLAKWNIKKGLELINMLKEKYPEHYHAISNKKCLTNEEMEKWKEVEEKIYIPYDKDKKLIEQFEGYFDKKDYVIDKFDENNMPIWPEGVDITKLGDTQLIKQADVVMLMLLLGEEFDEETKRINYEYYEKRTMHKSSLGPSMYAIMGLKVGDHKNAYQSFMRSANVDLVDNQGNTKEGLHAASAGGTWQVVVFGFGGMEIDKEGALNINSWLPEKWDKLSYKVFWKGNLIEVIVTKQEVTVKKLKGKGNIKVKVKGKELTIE
Excerpt: The concentrations of the acceptors and the saccharide donors were adjusted to one w/v %. Similarly as in Experiment 5, the pre-reaction solutions and the post reaction mixtures were subjected to TLC, followed by coloring the plates. […] By macroscopically observing the coloration degree of the newly detected spots, the yield of the transferred saccharides was relatively evaluated.

kojibiose phosphorylase [2] = target: T1, kojibiose phosphorylase; experiment: Substrate specificity for saccharide-hydrolyzing reaction by kojibiose phosphorylase (TLC); details: summary of Table 1
Excerpt: The saccharide concentration of each reaction solution was 2 w/v %. Pre-reaction solutions and post-reaction mixtures were subjected to thin layer chromatography (hereinafter abbreviated as "TLC") using "[sequence] 60 (20×20 cm)", an aluminum plate for TLC commercialized by Merck & Co., Inc., Rahway, USA. Samples were developed once at ambient temperature on the plate using 1-butanol/pyridine/water (=7:3:1 by volume) as a developing solvent system, and the plate was sprayed with 20 v/v % sulfuric acid/methanol solution, and heated at 110° C. for about 10 min for coloration. Comparing spots of the solutions and mixtures detected on the plates, it was checked whether the enzyme acted on the saccharides.

7week-old dd-strain mice = experiment: Acute toxicity test, oral administration; format: in vivo; details: powdery product rich in the saccharide, maximum dose 50 g/kg mouse by weight
Experimental: Acute toxicity test of the powdery products rich in glucosylsorbose, kojitriose, kojibiosylglucoside, and kojibiosylfructoside in Experiments 8-12 were tested in 7week-old dd-strain mice by administering orally. As a result, no mouse died even when administered with their maximum doses, i.e., 50 g/kg mouse by weight.

Row | SMILES | Transfer of glucosyl group from β-D-glucose-1-phosphoric acid to the acceptor (in words) (kojibiose phosphorylase [1]) | other results
1 | OC[C@H]1OC(O)[C@H](O)[C@@H](O)[C@@H]1O (stereo partly drawn) [D-Glucose] | effectively transferred glucosyl group | 
2 | OC[C@H]1O[C@H](O[C@H]2C(O)O[C@H](CO)[C@@H](O)[C@@H]2O)[C@H](O)[C@@H](O)[C@@H]1O (stereo partly drawn) [Kojibiose] | effectively transferred glucosyl group | Action of kojibiose phosphorylase on the saccharide (substrate specificity, in words) (kojibiose phosphorylase [2]): acted on it
3 | OCC1(O)OC[C@H](O)[C@@H](O)[C@@H]1O (stereo partly drawn) [L-Sorbose] | effectively transferred glucosyl group | 
4 | O=C(CO)[C@@H](O)[C@H](O)[C@H](CO)O[C@H]1O[C@H](CO)[C@@H](O)[C@H](O)[C@H]1O [glucosylsorbose, α-D-glucosyl-(1→5)-L-sorbose] |  | Acute toxicity: death of mice (7week-old dd-strain mice): no mouse died
5 | OC[C@H]1O[C@@](CO)(O[C@H]2O[C@H](CO)[C@@H](O)[C@H](O)[C@H]2O[C@H]2O[C@H](CO)[C@@H](O)[C@H](O)[C@H]2O)[C@@H](O)[C@@H]1O [kojibiosylfructoside, α-D-glucosyl-(1→2)-α-D-glucosyl-(1→2)-β-D-fructoside] |  | Acute toxicity: death of mice (7week-old dd-strain mice): no mouse died
6 | OC[C@H]1O[C@H](O[C@H]2O[C@H](CO)[C@@H](O)[C@H](O)[C@H]2O[C@H]2O[C@H](CO)[C@@H](O)[C@H](O)[C@H]2O)[C@H](O)[C@@H](O)[C@@H]1O [kojibiosylglucoside, α-D-glucosyl-(1→2)-α-D-glucosyl-(1,1)-α-D-glucoside] |  | Acute toxicity: death of mice (7week-old dd-strain mice): no mouse died
7 | OC[C@H]1O[C@H](O[C@H]2[C@@H](O[C@H]3C(O)O[C@H](CO)[C@@H](O)[C@@H]3O)O[C@H](CO)[C@@H](O)[C@@H]2O)[C@H](O)[C@@H](O)[C@@H]1O (stereo partly drawn) [kojitriose, α-D-glucosyl-(1→2)-α-D-glucosyl-(1→2)-D-glucose] |  | Acute toxicity: death of mice (7week-old dd-strain mice): no mouse died
8 | O=P(O)(O)O[C@H]1O[C@H](CO)[C@@H](O)[C@H](O)[C@H]1O [α-D-glucose-1-phosphoric acid] |  | Formation of glucosyl-transferred saccharide with the substance as saccharide donor (kojibiose phosphorylase [1]; used in place of β-D-glucose-1-phosphoric acid): No glucosyl-transferred saccharide was formed

The next lines start with results.

Row | Transfer of glucosyl group from β-D-glucose-1-phosphoric acid to the acceptor (in words) (kojibiose phosphorylase [1]) | SMILES | other results
9 | effectively transferred glucosyl group | OC[C@H]1O[C@H](O[C@H]2[C@H](O)[C@@H](O)[C@@H](O[C@H]3[C@H](O)[C@@H](O)[C@@H](O[C@H]4[C@H](O)[C@@H](O)[C@@H](O[C@H]5[C@H](O)[C@@H](O)C(O)O[C@@H]5CO)O[C@@H]4CO)O[C@@H]3CO)O[C@@H]2CO)[C@H](O)[C@@H](O)[C@@H]1O (stereo partly drawn) [Maltopentaose] | 
10 | effectively transferred glucosyl group | OC[C@H]1O[C@H](O[C@H]2[C@H](O)[C@@H](O)[C@H](O)O[C@@H]2CO)[C@H](O)[C@@H](O)[C@@H]1O [Maltose] | 
11 | effectively transferred glucosyl group | OC[C@H]1O[C@H](O[C@H]2[C@H](O)[C@@H](O)[C@@H](O[C@H]3[C@H](O)[C@@H](O)[C@@H](O[C@H]4[C@H](O)[C@@H](O)C(O)O[C@@H]4CO)O[C@@H]3CO)O[C@@H]2CO)[C@H](O)[C@@H](O)[C@@H]1O (stereo partly drawn) [Maltotetraose] | 
12 | effectively transferred glucosyl group | OC[C@H]1O[C@H](O[C@H]2[C@H](O)[C@@H](O)[C@@H](O[C@H]3[C@H](O)[C@@H](O)C(O)O[C@@H]3CO)O[C@@H]2CO)[C@H](O)[C@@H](O)[C@@H]1O (stereo partly drawn) [Maltotriose] | 
13 | effectively transferred glucosyl group | OC[C@H]1O[C@@](CO)(O[C@H]2O[C@H](CO)[C@@H](O)[C@H](O)[C@H]2O)[C@@H](O)[C@@H]1O [Sucrose] | 
14 | effectively transferred glucosyl group | OC[C@H]1O[C@H](O[C@H]2O[C@H](CO)[C@@H](O)[C@H](O)[C@H]2O)[C@H](O)[C@@H](O)[C@@H]1O [Trehalose] | 

From patent US6140487A (Kabushiki Kaisha Hayashibara Seibutsu Kagaku Kenkyujo, priority 1996, dated 2000)
